Data published in patent US6355467B1, “Saccharification enzymes from hyperthermophilic bacteria and processes for their production” (Johns Hopkins University, priority 1989, dated 2002).

Columns and labels:
[1] = tested on: P. furiosus α-glucosidase; test: Substrate specificity (kinetic assays) of purified α-glucosidase; assay type: biochemical, Pyrococcus furiosus; conditions: substrate hydrolysed by purified α-glucosidase
Procedure: (§1) α-Glucosidase was assayed using p-nitrophenyl-α-D-glucopyranoside (PNP-α-G) as substrate, and β-glucosidase was assayed using p-nitrophenyl-β-D-glucopyranoside (PNP-β-G) as substrate. Assays were conducted as follows; for each assay, 1.0 ml of substrate consisting of 10 mM PNP-α-G or PNP-β-G in 0.1 M sodium phosphate buffer, pH 5.5, was pipetted into a quartz cuvette. The cuvettes were inserted into a heated cell holder and preincubated for 5 to 10 minutes at the assay temperature of 98° C. Following the preincubation, enzyme sample (10 μl) was added to the cuvette and the evolution of p-nitrophenol (PNP) was followed by monitoring A405.
Substrate specificity. The substrate specificity of the purified α-glucosidase was tested with a variety of natural and synthetic glucosides.

P. furiosus = test: Effect of adding substrate to the culture medium on saccharification enzyme production; assay type: cell-based, Pyrococcus furiosus; conditions: substrate added to culture
Procedure: Growth of cells. P. furiosus was grown in artificial sea water supplemented with 10 g/l elemental sulfur and carbohydrate substrate, typically 3 g/l of soluble starch, unless otherwise specified, as described in Example 1. For the present studies, typically one liter bottles were inoculated with 20 ml of a late log phase culture and incubated for 12 hours at 98° C. in a silicon oil bath. Sulfur was removed by filtration and the cell pellet was recovered by centrifugation at about 12,000×g for 30 minutes. Intracellular enzyme preparation. […] The sonicated cells were centrifuged at about 18,000×g for 30 minutes to remove remaining sulfur and cell debris. […] Extracellular enzyme preparation. For extracellular enzyme activities, supernatants from the original centrifugation (i.e., the culture media) were concentrated from 1 liter to about 5 ml using, in succession, a Millipore […] ultrafiltration unit with a 10,000 molecular-weight-cutoff membrane, and a Novacell stirred cell with a 10,000 molecular-weight-cutoff membrane. […] EPPS was used instead of phosphate to prevent precipitation of salts from the media. […] The amount of reducing sugar released was determined using the dinitrosalicylic acid method (Barnfeld, P., 1955, Methods in Enzymology 1:149-50). One unit of enzyme activity was defined as the amount of enzyme that released one nmol of reducing sugar (as a glucose standard) per minute under the assay conditions used. α-Glucosidase was assayed using p-nitrophenyl-α-D-glucopyranoside (PNP-α-G) as substrate, and β-glucosidase was assayed using p-nitrophenyl-β-D-glucopyranoside (PNP-β-G) as substrate. Assays were conducted as follows; for each assay, 1.0 ml of substrate consisting of 10 mM PNP-α-G or PNP-β-G in 0.1 M sodium phosphate buffer, pH 5.5, was pipetted into a quartz cuvette. […] Following the preincubation, enzyme sample (10 μl) was added to the cuvette and the evolution of p-nitrophenol (PNP) was followed by monitoring A405. One unit of glucosidase activity was that amount of enzyme releasing one μmol PNP per minute under the standard conditions, from the appropriate α or β substrate.

[2] = tested on: purified P. furiosus α-glucosidase; test: Effects of denaturing agents and inhibitors on purified α-glucosidase; assay type: biochemical, Pyrococcus furiosus; conditions: standard assay at 98° C.
Procedure: as §1, with “A405. One unit of glucosidase activity was that amount of enzyme releasing one μmol PNP per minute under the standard conditions, from the appropriate α or β substrate.” for “A405.”
Resistance to denaturing agents. […] Several denaturing agents were added to p-nitrophenyl-α-D-glucopyranoside, both in the presence and absence of the α-glucosidase, to control for possible degradation of the substrate in the presence of the agents.

Molecule: Starch
- activity relative to p-Nitrophenyl-α-D-glucopyranoside (symbols) [1]: nd (No activity detected (<3% of p-Nitrophenyl-α-D-glucopyranoside))
- best yield of β-glucosidase per liter of culture (P. furiosus; intracellular): 220 units

Molecule: O=[N+]([O-])c1ccc(O[C@@H]2O[C@H](CO)[C@H](O)[C@H](O)[C@H]2O)cc1 [p-Nitrophenyl-α-D-glucopyranoside]
- Km [1]: 260 µM
- Vm [1]: 287 U/mg

Molecule: NC(N)=O [Urea]
- Activity Remaining ([2]; agent at 1.0 M): 84%

Molecule: O=C(O)CN(CCN(CC(=O)O)CC(=O)O)CC(=O)O [EDTA, Ethylenediaminetetraacetic acid]
- Activity Remaining ([2]; agent at 20 mM): 50%

Molecule: O=C(O)CN(CCOCCOCCN(CC(=O)O)CC(=O)O)CC(=O)O [EGTA, [Ethylenebis(oxyethylenenitrilo)]tetraacetic acid]
- Activity Remaining ([2]; agent at 20 μM): 85%

Molecule: O=[N+]([O-])c1ccc(O[C@@H]2O[C@H](CO)[C@@H](O)[C@H](O)[C@H]2O)cc1 [p-Nitrophenyl-β-D-glucopyranoside]
- activity relative to p-Nitrophenyl-α-D-glucopyranoside (symbols) [1]: t (Only a trace of activity could be detected (i.e., ˜3% of the level found with p-Nitrophenyl-α-D-glucopyranoside).)

Molecule: OC[C@H]1O[C@H](O[C@H]2[C@H](O)[C@@H](O)C(O)O[C@@H]2CO)[C@H](O)[C@@H](O)[C@@H]1O (mixture of isomers) [Maltose]
- Km [1]: 5200 µM
- Vm [1]: 1760 U/mg
- best yield of pullulanase per liter of culture (P. furiosus; intracellular): 8020 units

Molecule: CCCCCCCCCCCCOS(=O)(=O)[O-].[Na+] [Sodium dodecyl sulphate]
- Activity Remaining ([2]; agent at 1% (w/v), 30 minutes): 22%

Molecule: Cl.N=C(N)N [Guanidinium hydrochloride]
- Activity Remaining ([2]; agent at 1.0 M): <1%

Molecule: OC[C@H]1O[C@@](CO)(O[C@H]2O[C@H](CO)[C@@H](O)[C@H](O)[C@H]2O)[C@@H](O)[C@@H]1O [Sucrose]
- activity relative to p-Nitrophenyl-α-D-glucopyranoside (symbols) [1]: nd (No activity detected (<3% of p-Nitrophenyl-α-D-glucopyranoside))

Molecule: glycogen
- best yield of amylase per liter of culture (P. furiosus; enzyme in medium): 60,100 units
- best yield of α-glucosidase per liter of culture (P. furiosus; intracellular): 9584

Molecule: CO[C@H]1O[C@H](CO)[C@@H](O)[C@H](O)[C@H]1O [Methyl-α-D-glucopyranoside]
- Km [1]: 770 µM
- Vm [1]: 186 U/mg

Molecule: OC[C@H]1O[C@H](OC[C@H]2OC(O)[C@H](O)[C@@H](O)[C@@H]2O)[C@H](O)[C@@H](O)[C@@H]1O (stereo partly drawn) [Isomaltose]
- Km [1]: 8200 µM
- Vm [1]: 951 U/mg

Molecule: O[C@H](CS)[C@H](O)CS (racemic) [Dithiothreitol]
- Activity Remaining ([2]; agent at 100 mM): 83%
